According to US12479843B2, “Spiro ring-containing quinazoline compounds” (WIGEN BIOMEDICINE TECHNOLOGY (SHANGHAI) CO., LTD., priority 2019, dated 2025):

These compounds were tested on H358 cells (assay: Antiproliferative activity against H358 cells (Cell Titer Glow, ultra-low attachment plate)). Details: Homo sapiens, NCI-H358, 72 h, 96-well ultra-low attachment plate, three days after addition of compound, Cell Titer Glow.
Type: cell-based
Protocol: 2500 H358 cells were seeded in a 96-well ultra-low attachment plate (corning, 7007). After one day of growth, a serially diluted compound (a maximum concentration of 5 μM, 5-fold dilution, a total of five doses) was added. Three days after the addition of the compound, Cell Titer Glow (Promega, G9681) was added to evaluate pellet growth, and the IC50 value was calculated.

Row | IC50 | SMILES
1 | < 300 nM | C=CC(=O)N1CC2(CCN(c3nc(O[C@@H]4CCS(=O)(=O)C[C@H]4N(C)C)nc4c(OCC(F)(F)F)c(-c5c(C)ccc6[nH]ncc56)c(C5CC5)cc34)CC2)C1 [Compound 318]
2 | < 300 nM | C=CC(=O)N1CC2(CCN(c3nc(N4CC[C@@H](N5CC(C)C5)C4)nc4c(OCC(F)(F)F)c(-c5c(C)ccc6[nH]ncc56)c(C5CC5)cc34)CC2)C1 [Compound 297]
3 | 300 to 1000 nM | C=CC(=O)N1CC2(CCN(c3nc(N4CC(N5CCC(F)(F)CC5)C4)nc4c(OCC(F)(F)F)c(-c5c(C)ccc6[nH]ncc56)c(C5CC5)cc34)CC2)C1 [Compound 180]
4 | < 300 nM | C=CC(=O)N1CC2(CCN(c3nc(OC4CCN(CCOC)CC4)nc4c(OCC(F)(F)F)c(-c5c(N)c(Cl)cc(Cl)c5F)c(C5CC5)cc34)CC2)C1 [Compound 49]
5 | < 300 nM | C=CC(=O)N1CC2(CCN(c3nc(N4CC(N(C)CC)C4)nc4c(OCC(F)(F)F)c(-c5c(C)ccc6[nH]ncc56)c(C5CC5)cc34)CC2)C1 [Compound 165]
6 | < 300 nM | C=CC(=O)N1CC2(CCN(c3nc(N4CC(N5CC[C@H](F)C5)C4)nc4c(OCC(F)(F)F)c(-c5c(C)ccc6[nH]ncc56)c(C5CC5)cc34)CC2)C1 [Compound 172]
7 | < 300 nM | C=CC(=O)N1CC2(CCN(c3nc(N4CC[C@H](N5CC[C@@H](C)C5)C4)nc4c(OCC(F)(F)F)c(-c5c(C)ccc6[nH]ncc56)c(C5CC5)cc34)CC2)C1 [Compound 300]
8 | < 300 nM | C=C(C(=O)N1CC2(CCN(c3nc(OC4CCN(CCOC)CC4)nc4c(OCC(F)(F)F)c(-c5c(C)ccc6[nH]ncc56)c(C5CC5)cc34)CC2)C1)c1cncnc1 [Compound 21]
9 | < 300 nM | C=CC(=O)N1CC2(CCN(c3nc(N4CC(N5C[C@H](O)[C@@H](F)C5)C4)nc4c(OCC(F)(F)F)c(-c5c(C)ccc6[nH]ncc56)c(C5CC5)cc34)CC2)C1 [Compound 261]
10 | 300 to 1000 nM | C=CC(=O)N1CC2(CCN(c3nc(N4CC5(C4)C[S+]([O-])C5)nc4c(OCC(F)(F)F)c(-c5c(C)ccc6[nH]ncc56)c(C5CC5)cc34)CC2)C1 [Compound 305]
11 | 300 to 1000 nM | C=C(F)C(=O)N1CC2(CCN(c3nc(N4CC5(CCN(C6CC6)CC5)C4)nc4c(OCC(F)(F)F)c(-c5c(C)ccc6[nH]ncc56)c(C5CC5)cc34)CC2)C1 [Compound 80]
12 | < 300 nM | C=C(F)C(=O)N1CC2(CCN(c3nc(OC4CCN(CCOC)CC4)nc4c(OCC(F)(F)F)c(-c5c(O)cccc5F)c(C5CC5)cc34)CC2)C1 [Compound 46]
13 | < 300 nM | C=CC(=O)N1CC2(CCN(c3nc(N4CC(N5CCC(OC)CC5)C4)nc4c(OCC(F)(F)F)c(-c5c(C)ccc6[nH]ncc56)c(C5CC5)cc34)CC2)C1 [Compound 179]
14 | < 300 nM | C=CC(=O)N1CC2(CCN(c3nc(N4CC(N5CCC(C)CC5)C4)nc4c(OCC(F)(F)F)c(-c5c(C)ccc6[nH]ncc56)c(C5CC5)cc34)CC2)C1 [Compound 268]
15 | < 300 nM | C=CC(=O)N1CC2(CCN(c3nc(OC4CCN(CCOC)CC4)nc4c(OCC(F)(F)F)c(-c5c(C)ccc6[nH]ncc56)c(Cl)cc34)CC2)C1 [Compound 12]
16 | < 300 nM | C=CC(=O)N1CC2(CCN(c3nc(N4CC[C@@H](N5CC[C@@H](F)C5)C4)nc4c(OCC(F)(F)F)c(-c5c(C)ccc6[nH]ncc56)c(C5CC5)cc34)CC2)C1 [Compound 194]
17 | < 300 nM | C=CC(=O)N1CC2(CCN(c3nc(N4CC(N5CC(F)C5)C4)nc4c(OCC(F)(F)F)c(-c5c(C)ccc6[nH]ncc56)c(C5CC5)cc34)CC2)C1 [Compound 168]
18 | < 300 nM | C=CC(=O)N1CC2(CCN(c3nc(N4CC(N5CCC[C@H]5C)C4)nc4c(OCC(F)(F)F)c(-c5c(C)ccc6[nH]ncc56)c(C5CC5)cc34)CC2)C1 [Compound 245]
19 | < 300 nM | C=CC(=O)N1CC2(CCN(c3nc(N4CC(N5CCCC5)C4)nc4c(OCC(F)(F)F)c(-c5c(C)ccc6[nH]ncc56)c(C(=C)C)cc34)CC2)C1 [Compound 321]
20 | 300 to 1000 nM | C=CC(=O)N1CC2(CCN(c3nc(N4CC(N5CC[C@H](C(C)(C)O)C5)C4)nc4c(OCC(F)(F)F)c(-c5c(C)ccc6[nH]ncc56)c(C5CC5)cc34)CC2)C1 [Compound 253]

These compounds were tested on pERK level in H358 cells (assay: pERK and ERK protein content assay in H358 cells (ELISA)). Details: Homo sapiens, NCI-H358, compound 1 μM, 24 h, pERK/ERK ratio compared with DMSO group, read-out: Inhibition rate (%) of pERK level.
Type: cell-based
Procedure, shortened: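 H358 cells grown one day, then treated 24 h with compound at 1 μM. pERK and ERK in lysates measured by ELISA; pERK/ERK ratio expressed as percent inhibition versus DMSO.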

Row | SMILES | inhibition at 1 µM
21 | C=CC(=O)N1CC2(CCN(c3nc(O[C@@H]4CCS(=O)(=O)C[C@H]4N(C)C)nc4c(OCC(F)(F)F)c(-c5c(C)ccc6[nH]ncc56)c(C5CC5)cc34)CC2)C1 [Compound 318] | > 90%
22 | C=CC(=O)N1CC2(CCN(c3nc(N4CC[C@@H](N5CC(C)C5)C4)nc4c(OCC(F)(F)F)c(-c5c(C)ccc6[nH]ncc56)c(C5CC5)cc34)CC2)C1 [Compound 297] | > 90%
23 | C=CC(=O)N1CC2(CCN(c3nc(N4CC(N5CCC(F)(F)CC5)C4)nc4c(OCC(F)(F)F)c(-c5c(C)ccc6[nH]ncc56)c(C5CC5)cc34)CC2)C1 [Compound 180] | > 90%
24 | C=CC(=O)N1CC2(CCN(c3nc(OC4CCN(CCOC)CC4)nc4c(OCC(F)(F)F)c(-c5c(N)c(Cl)cc(Cl)c5F)c(C5CC5)cc34)CC2)C1 [Compound 49] | > 90%
25 | C=CC(=O)N1CC2(CCN(c3nc(N4CC(N(C)CC)C4)nc4c(OCC(F)(F)F)c(-c5c(C)ccc6[nH]ncc56)c(C5CC5)cc34)CC2)C1 [Compound 165] | > 90%
26 | C=CC(=O)N1CC2(CCN(c3nc(N4CC(N5CC[C@H](F)C5)C4)nc4c(OCC(F)(F)F)c(-c5c(C)ccc6[nH]ncc56)c(C5CC5)cc34)CC2)C1 [Compound 172] | > 90%
27 | C=CC(=O)N1CC2(CCN(c3nc(N4CC[C@H](N5CC[C@@H](C)C5)C4)nc4c(OCC(F)(F)F)c(-c5c(C)ccc6[nH]ncc56)c(C5CC5)cc34)CC2)C1 [Compound 300] | > 90%
28 | C=C(C(=O)N1CC2(CCN(c3nc(OC4CCN(CCOC)CC4)nc4c(OCC(F)(F)F)c(-c5c(C)ccc6[nH]ncc56)c(C5CC5)cc34)CC2)C1)c1cncnc1 [Compound 21] | > 90%
29 | C=CC(=O)N1CC2(CCN(c3nc(N4CC(N5C[C@H](O)[C@@H](F)C5)C4)nc4c(OCC(F)(F)F)c(-c5c(C)ccc6[nH]ncc56)c(C5CC5)cc34)CC2)C1 [Compound 261] | > 90%
30 | C=CC(=O)N1CC2(CCN(c3nc(N4CC5(C4)C[S+]([O-])C5)nc4c(OCC(F)(F)F)c(-c5c(C)ccc6[nH]ncc56)c(C5CC5)cc34)CC2)C1 [Compound 305] | 50 to 90%
31 | C=C(F)C(=O)N1CC2(CCN(c3nc(N4CC5(CCN(C6CC6)CC5)C4)nc4c(OCC(F)(F)F)c(-c5c(C)ccc6[nH]ncc56)c(C5CC5)cc34)CC2)C1 [Compound 80] | 50 to 90%
32 | C=C(F)C(=O)N1CC2(CCN(c3nc(OC4CCN(CCOC)CC4)nc4c(OCC(F)(F)F)c(-c5c(O)cccc5F)c(C5CC5)cc34)CC2)C1 [Compound 46] | > 90%
33 | C=CC(=O)N1CC2(CCN(c3nc(N4CC(N5CCC(OC)CC5)C4)nc4c(OCC(F)(F)F)c(-c5c(C)ccc6[nH]ncc56)c(C5CC5)cc34)CC2)C1 [Compound 179] | > 90%
34 | C=CC(=O)N1CC2(CCN(c3nc(N4CC(N5CCC(C)CC5)C4)nc4c(OCC(F)(F)F)c(-c5c(C)ccc6[nH]ncc56)c(C5CC5)cc34)CC2)C1 [Compound 268] | > 90%
35 | C=CC(=O)N1CC2(CCN(c3nc(OC4CCN(CCOC)CC4)nc4c(OCC(F)(F)F)c(-c5c(C)ccc6[nH]ncc56)c(Cl)cc34)CC2)C1 [Compound 12] | > 90%
36 | C=CC(=O)N1CC2(CCN(c3nc(N4CC[C@@H](N5CC[C@@H](F)C5)C4)nc4c(OCC(F)(F)F)c(-c5c(C)ccc6[nH]ncc56)c(C5CC5)cc34)CC2)C1 [Compound 194] | > 90%
37 | C=CC(=O)N1CC2(CCN(c3nc(N4CC(N5CC(F)C5)C4)nc4c(OCC(F)(F)F)c(-c5c(C)ccc6[nH]ncc56)c(C5CC5)cc34)CC2)C1 [Compound 168] | > 90%
38 | C=CC(=O)N1CC2(CCN(c3nc(N4CC(N5CCC[C@H]5C)C4)nc4c(OCC(F)(F)F)c(-c5c(C)ccc6[nH]ncc56)c(C5CC5)cc34)CC2)C1 [Compound 245] | > 90%
39 | C=CC(=O)N1CC2(CCN(c3nc(N4CC(N5CCCC5)C4)nc4c(OCC(F)(F)F)c(-c5c(C)ccc6[nH]ncc56)c(C(=C)C)cc34)CC2)C1 [Compound 321] | > 90%
40 | C=CC(=O)N1CC2(CCN(c3nc(N4CC(N5CC[C@H](C(C)(C)O)C5)C4)nc4c(OCC(F)(F)F)c(-c5c(C)ccc6[nH]ncc56)c(C5CC5)cc34)CC2)C1 [Compound 253] | > 90%
